Measurements taken from PMC8318231, “Rate-of-Kill (RoK) assays to triage large compound sets for Chagas disease drug discovery: Application to GSK Chagas Box” (PLoS Neglected Tropical Diseases, 2021).

What was measured:
[1] = test system: T. cruzi Tulahuen trypomastigotes; assay: T. cruzi trypomastigote assay (Cell Titer-Glo viability, ATP luminescence); assay type: cell-based, Trypanosoma cruzi; settings: for Trypomastigotes pIC50 48 hours: 48 hours incubation; for Trypomastigotes pIC50 48 hours / Trypomastigotes pIC50 72 hours: pIC50 = -log10 IC50 in molar units; for Trypomastigotes pIC50 72 hours: 72 hours incubation; for 72 pIC50 (trypomastigotes, raw data of Fig 1D): 72 hours, plotted values, censored values given without sign; for 48 pIC50 / 72 pIC50: trypomastigote assay; for 48 pIC50: 48 h; for 72 pIC50: 72 h
In short: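 Tulahuen trypomastigotes from infected LLC-MK2 culture supernatants (days 5–8) plated at 5 × 10^4 per well in DMEM/2% FBS with compound at 5 μM single-shot final or in dose response. Viability by CellTiter-Glo ATP luminescence after 10 min at room temperature, normalised to no-cell (100%) and DMSO (0%) controls.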

[2] = test system: T. cruzi intracellular amastigotes in H9c2 cells; assay: Rate-of-Kill (RoK) high-content imaging assay, amastigotes per cell (AM/CELL) and curve descriptors; assay type: cell-based, Trypanosoma cruzi; set-up: key to ME_24h / ME_48h / ME_72h: % reduction in parasite burden (cidal response); t50pct_MCC50 / t50pct_Cmax: unit not given here; settings: for ME_24h: 24h; for ME_48h: 48h; for ME_72h: 72h; for t50%_Cmax / tlag_Cmax / t50pct_Cmax: at Cmax; for ME_24h (%): maximum effect at 24 h; for ME_24h (%) / ME_48h (%) / ME_72h (%): RoK assay; for ME_48h (%): maximum effect at 48 h; for ME_72h (%): maximum effect at 72 h; for ME 24h (maximum effect at 24 hours, intracellular amastigotes): maximum percentage of parasite burden reduction reached by any concentration
In short: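 H9c2 cardiomyocytes infected with T. cruzi trypomastigotes (MOI 8, 18 h), then compounds tested at 5 μM single shot or 11-point 1/3 dilution from 50 μM. DRAQ5-stained nuclei imaged over a time course. Amastigotes per cell normalised to infected cells at 4 h (0%) and non-infected cells (100%).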

TcCYP51 = settings: formerly reported; cited from earlier work

Row | SMILES | Trypomastigotes pIC50 48 hours [1] | Trypomastigotes pIC50 72 hours [1] | ME_24h ([2]; figure 5) | ME_48h ([2]; figure 5) | ME_72h ([2]; figure 5) | MCCE ([2]; RoK curve descriptor) [µM] | tlag_Cmax [2] [h] | t50pct_Cmax ([2]; figure 5) | tlag_Cmax ([2]; figure 5) | t50pct_MCC50 ([2]; at MCC50, figure 5) | tlag_MCC50 ([2]; at MCC50, figure 5) | MCCE ([2]; figure 5) | ME_24h (%) [2] [%] | ME_48h (%) [2] [%] | ME_72h (%) [2] [%] | ME 24h (maximum effect at 24 hours, intracellular amastigotes) [2] [%] | CYP51 pIC50 (TcCYP51) | 72 pIC50 (trypomastigotes, raw data of Fig 1D) [1] | 48 pIC50 ([1]; figure 1A) | 72 pIC50 ([1]; figure 1A) | also measured
1 | CC(=O)Nc1ccc(-c2noc(CC3CCCN(Cc4cccc(F)c4C)C3)n2)cc1 (stereo not drawn) [TCMDC-143362] | 5.2 | 5.3 | 28.3063 | 60.2253 | 68.1396 | 1.9 | 4.0 | 48 | 4 | 72 | 24 | 1.852 | 28.3 | 60.2 | 68.1 | 73.518 | < 4 | – | – | – | MCC50 ([2]; RoK curve descriptor): 5.6 µM; AM/CELL NORM ([2]; Time 4, figure 4 A): -3.298; AM/CELL NORM ([2]; Time 24, figure 4 A): 28.3063; AM/CELL NORM ([2]; Time 48, figure 4 A): 60.2253; AM/CELL NORM ([2]; Time 72, figure 4 A): 68.1396; t50%_Cmax [2]: 48.0 h; t50%_MCC50 ([2]; at MCC50): 72.0 h; tlag_MCC50 ([2]; at MCC50): 24.0 h; MCC50 ([2]; figure 5, in µM): 5.556
2 | N#Cc1ccc(S(=O)(=O)N2CCC3(CCN(c4ccccc4)C3=O)CC2)cc1 [TCMDC-143371] | < 4.3 | < 4.3 | -78.0559 | 40.2473 | 62.6058 | 1.2 | 36.0 | 72 | 36 | 72 | 48 | 1.235 | -78.1 | 40.3 | 62.6 | -50.5626 | < 4 | < 4.3 | < 4.3 | < 4.3 | 72 pIC50 ([1]; figure 1B): < 4.3; MCC50 ([2]; RoK curve descriptor): 5.6 µM; AM/CELL NORM ([2]; Time 4, sheet figure 4 A): 10.0376; AM/CELL NORM ([2]; Time 24, sheet figure 4 A): -56.4995; AM/CELL NORM ([2]; Time 48, sheet figure 4 A): 45.4375; AM/CELL NORM ([2]; Time 72, sheet figure 4 A): 85.4584; t50%_Cmax [2]: 72.0 h; t50%_MCC50 ([2]; at MCC50): 72.0 h; tlag_MCC50 ([2]; at MCC50): 24.0 h; MCC50 ([2]; figure 5, in µM): 27.7778
3 | CC(C)Nc1nccc(-c2c(-c3ccc(F)cc3)ncn2C2CCOCC2)n1 [TCMDC-143379] | < 4.3 | < 4.3 | -22.482 | -3.3846 | 36.7081 | 0.2 | 24.0 | 72 | 24 | 72 | 72 | 0.2058 | -22.5 | -3.4 | 36.7 | -22.482 | < 4 | < 4.3 | < 4.3 | < 4.3 | 72 pIC50 ([1]; figure 1B): < 4.3; AM/CELL NORM ([2]; Time 4, sheet figure 4 A): -6.859; AM/CELL NORM ([2]; Time 24, sheet figure 4 A): -37.6965; AM/CELL NORM ([2]; Time 48, sheet figure 4 A): -3.3846; AM/CELL NORM ([2]; Time 72, sheet figure 4 A): 36.7081; MCC50 ([2]; figure 5): 50 µM
4 | O=C(N1CCc2ccccc2CC1)C1(C(=O)N2CCC(n3c(=O)[nH]c4ncccc43)CC2)CC1.O=C(O)C(F)(F)F [TCMDC-143381] | < 4.3 | < 4.3 | -241.612 | -106.513 | 38.7809 | 1.9 | 24.0 | 72 | 24 | 72 | 72 | 1.852 | -241.6 | -106.5 | 38.8 | -241.612 | 6.5 | < 4.3 | < 4.3 | < 4.3 | 72 pIC50 ([1]; figure 1B): < 4.3; AM/CELL NORM ([2]; Time 4, sheet figure 4 A): 8.613; AM/CELL NORM ([2]; Time 24, sheet figure 4 A): -274.305; AM/CELL NORM ([2]; Time 48, sheet figure 4 A): -155.332; AM/CELL NORM ([2]; Time 72, sheet figure 4 A): 34.067; MCC50 ([2]; figure 5): 50 µM
